#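 Results reflect a 48-hour exposure of cells in 96-well plates to compound at five concentrations. GI50: concentration for 50% inhibition of growth. TGI marks complete inhibition of growth.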
# Columns and labels:
# Assay in all cases: NCI anticancer screen, dose series, 48 h
# [1] = system: 786-0 renal
# [2] = system: A498 renal
# [3] = system: A549 NSCLC
# [4] = system: ACHN renal
# [5] = system: BT-549 breast
# [6] = system: CAKI-1 renal
# [7] = system: CCRF-CEM leukemia
# [8] = system: COLO 205 colon
# [9] = system: DU-145 prostate
# [10] = system: EKVX NSCLC
# [11] = system: HCC-2998 colon
# [12] = system: HCT-116 colon
# [13] = system: HCT-15 colon
# [14] = system: HOP-62 NSCLC
# [15] = system: HOP-92 NSCLC
# [16] = system: HT29 colon
# [17] = system: IGROV1 ovarian
# [18] = system: K-562 leukemia
# [19] = system: KM12 colon
# [20] = system: LOX IMVI melanoma
# [21] = system: M14 melanoma
# [22] = system: MALME-3M melanoma
# [23] = system: MCF7 breast
# [24] = system: MDA-MB-231 breast
# [25] = system: MDA-MB-435
# [26] = system: MOLT-4 leukemia
# [27] = system: NCI-H226 lung
# [28] = system: NCI-H23 lung
# [29] = system: NCI-H460 lung
# [30] = system: NCI-H522 lung
# [31] = system: NCI/ADR-RES ovarian
# [32] = system: OVCAR-4 ovarian
# [33] = system: OVCAR-5 ovarian
# [34] = system: OVCAR-8 ovarian
# [35] = system: PC-3 prostate
# [36] = system: RPMI-8226 leukemia
# [37] = system: RXF 393 renal
# [38] = system: SF-268 CNS
# [39] = system: SF-295 CNS
# [40] = system: SF-539 CNS
# [41] = system: SK-MEL-2 melanoma
# [42] = system: SK-MEL-28 melanoma
# [43] = system: SK-MEL-5 melanoma
# [44] = system: SK-OV-3 ovarian
# [45] = system: SN12C renal
# [46] = system: SNB-19 CNS
# [47] = system: SNB-75 CNS
# [48] = system: SR leukemia
# [49] = system: SW-620 colon
# [50] = system: T-47D breast
# [51] = system: TK-10 renal
# [52] = system: U251 CNS
# [53] = system: UACC-257 melanoma
# [54] = system: UACC-62 melanoma
# [55] = system: UO-31 renal
# [56] = system: HL-60(TB) leukemia
# [57] = system: HS 578T breast
# [58] = system: OVCAR-3 ovarian
compound,measurement,setting,value
CCCCCc1ccc(S(=O)(=O)Nc2cc(-c3csc(NC(=O)CN4CCN(CCO)CC4)n3)ccc2OC)cc1,GI50,[1],1.85 µM
same,TGI,[1],3.39 µM
same,GI50,[2],1.58 µM
same,TGI,[2],2.95 µM
same,GI50,[3],1.89 µM
same,TGI,[3],4.18 µM
same,GI50,[4],1.81 µM
same,TGI,[4],3.28 µM
same,GI50,[5],1.55 µM
same,TGI,[5],3.1 µM
same,GI50,[6],1.62 µM
same,TGI,[6],3.32 µM
same,GI50,[7],2.54 µM
same,TGI,[7],7.83 µM
same,GI50,[8],1.61 µM
same,TGI,[8],3.11 µM
same,GI50,[9],1.89 µM
same,TGI,[9],3.6 µM
same,GI50,[10],1.69 µM
same,TGI,[10],3.59 µM
same,GI50,[11],1.93 µM
same,TGI,[11],3.8 µM
same,GI50,[12],1.72 µM
same,TGI,[12],3.24 µM
same,GI50,[13],1.86 µM
same,TGI,[13],3.65 µM
same,GI50,[14],1.66 µM
same,TGI,[14],3.18 µM
same,GI50,[15],1.5 µM
same,TGI,[15],3 µM
same,GI50,[16],1.89 µM
same,TGI,[16],3.75 µM
same,GI50,[17],1.92 µM
same,TGI,[17],4.01 µM
same,GI50,[18],2.69 µM
same,TGI,[18],> 100 µM
same,GI50,[19],1.92 µM
same,TGI,[19],3.7 µM
same,GI50,[20],1.73 µM
same,TGI,[20],3.24 µM
same,GI50,[21],1.71 µM
same,TGI,[21],3.24 µM
same,GI50,[22],1.64 µM
same,TGI,[22],3.15 µM
same,GI50,[23],1.62 µM
same,TGI,[23],3.2 µM
same,GI50,[24],1.94 µM
same,TGI,[24],3.83 µM
same,GI50,[25],1.7 µM
same,TGI,[25],3.21 µM
same,GI50,[26],3.17 µM
same,TGI,[26],10.6 µM
same,GI50,[27],1.9 µM
same,TGI,[27],3.88 µM
same,GI50,[28],1.93 µM
same,TGI,[28],4.38 µM
same,GI50,[29],1.84 µM
same,TGI,[29],3.46 µM
same,GI50,[30],1.86 µM
same,TGI,[30],3.58 µM
same,GI50,[31],3.49 µM
same,TGI,[31],14.1 µM
same,GI50,[32],2.05 µM
same,TGI,[32],5.12 µM
same,GI50,[33],2.19 µM
same,TGI,[33],5.44 µM
same,GI50,[34],1.82 µM
same,TGI,[34],3.52 µM
same,GI50,[35],2.68 µM
same,TGI,[35],7.88 µM
same,GI50,[36],1.78 µM
same,TGI,[36],4.28 µM
same,GI50,[37],1.38 µM
same,TGI,[37],3.01 µM
same,GI50,[38],1.7 µM
same,TGI,[38],3.4 µM
same,GI50,[39],1.89 µM
same,TGI,[39],3.74 µM
same,GI50,[40],1.54 µM
same,TGI,[40],2.95 µM
same,GI50,[41],1.78 µM
same,TGI,[41],3.36 µM
same,GI50,[42],1.77 µM
same,TGI,[42],3.25 µM
same,GI50,[43],1.77 µM
same,TGI,[43],3.2 µM
same,GI50,[44],1.81 µM
same,TGI,[44],3.3 µM
same,GI50,[45],1.94 µM
same,TGI,[45],3.69 µM
same,GI50,[46],2.05 µM
same,TGI,[46],4.59 µM
same,GI50,[47],1.39 µM
same,TGI,[47],2.75 µM
same,GI50,[48],1.76 µM
same,TGI,[48],5.23 µM
same,GI50,[49],1.75 µM
same,TGI,[49],3.3 µM
same,GI50,[50],1.79 µM
same,TGI,[50],3.78 µM
same,GI50,[51],1.94 µM
same,TGI,[51],3.96 µM
same,GI50,[52],1.73 µM
same,TGI,[52],3.41 µM
same,GI50,[53],1.66 µM
same,TGI,[53],3.22 µM
same,GI50,[54],1.81 µM
same,TGI,[54],3.54 µM
same,GI50,[55],1.52 µM
same,TGI,[55],3.03 µM
O=C1C(c2ccccc2)=C(N2CCc3ccccc32)OC1(Cl)Cl,GI50,[1],1.82 µM
same,TGI,[1],4.21 µM
same,GI50,[2],3.94 µM
same,TGI,[2],14.6 µM
same,GI50,[3],4.71 µM
same,TGI,[3],32.7 µM
same,GI50,[4],2.27 µM
same,TGI,[4],7.14 µM
same,GI50,[5],2.15 µM
same,TGI,[5],6.26 µM
same,GI50,[6],1.47 µM
same,TGI,[6],3.47 µM
same,GI50,[7],1.47 µM
same,TGI,[7],5.56 µM
same,GI50,[8],1.85 µM
same,TGI,[8],4.36 µM
same,GI50,[9],1.97 µM
same,TGI,[9],3.9 µM
same,GI50,[10],2.7 µM
same,TGI,[10],8.94 µM
same,GI50,[11],2.91 µM
same,TGI,[11],8.88 µM
same,GI50,[12],1.58 µM
same,TGI,[12],8.04 µM
same,GI50,[13],1.74 µM
same,TGI,[13],4.56 µM
same,GI50,[56],2.21 µM
same,TGI,[56],5.62 µM
same,GI50,[14],12.2 µM
same,TGI,[14],35.8 µM
same,GI50,[15],1.81 µM
same,TGI,[15],5.21 µM
same,GI50,[57],2.99 µM
same,TGI,[57],> 100 µM
same,GI50,[16],2.25 µM
same,TGI,[16],5.37 µM
same,GI50,[17],4.44 µM
same,TGI,[17],29 µM
same,GI50,[19],5.13 µM
same,TGI,[19],18.8 µM
same,GI50,[20],1.65 µM
same,TGI,[20],3.63 µM
same,GI50,[21],1.77 µM
same,TGI,[21],3.73 µM
same,GI50,[22],1.89 µM
same,TGI,[22],4.38 µM
same,GI50,[23],2.29 µM
same,TGI,[23],9.59 µM
same,GI50,[24],2.89 µM
same,TGI,[24],9.09 µM
same,GI50,[25],3.26 µM
same,TGI,[25],11.4 µM
same,GI50,[26],1.86 µM
same,TGI,[26],5.13 µM
same,GI50,[27],1.8 µM
same,TGI,[27],4.27 µM
same,GI50,[28],1.96 µM
same,TGI,[28],4.67 µM
same,GI50,[29],3.96 µM
same,TGI,[29],20.2 µM
same,GI50,[30],1.7 µM
same,TGI,[30],4.17 µM
same,GI50,[31],3.21 µM
same,TGI,[31],> 100 µM
same,GI50,[58],1.91 µM
same,TGI,[58],3.89 µM
same,GI50,[32],3.38 µM
same,TGI,[32],13.6 µM
same,GI50,[33],3.57 µM
same,TGI,[33],10.4 µM
same,GI50,[34],3.58 µM
same,TGI,[34],> 100 µM
same,GI50,[35],4.03 µM
same,TGI,[35],54.6 µM
same,GI50,[36],2.36 µM
same,TGI,[36],6.09 µM
same,GI50,[37],1.44 µM
same,TGI,[37],2.86 µM
same,GI50,[38],3.92 µM
same,TGI,[38],29.4 µM
same,GI50,[39],14.1 µM
same,TGI,[39],32.4 µM
same,GI50,[40],2.19 µM
same,TGI,[40],5.17 µM
same,GI50,[41],3.57 µM
same,TGI,[41],18.6 µM
same,GI50,[42],2.27 µM
same,TGI,[42],4.99 µM
same,GI50,[43],4.35 µM
same,TGI,[43],16.9 µM
same,GI50,[44],13.4 µM
same,TGI,[44],30.9 µM
same,GI50,[45],2.7 µM
same,TGI,[45],8.58 µM
same,GI50,[46],5.27 µM
same,TGI,[46],22.9 µM
same,GI50,[47],2.52 µM
same,TGI,[47],17.2 µM
same,GI50,[48],1.67 µM
same,TGI,[48],5.92 µM
same,GI50,[49],1.57 µM
same,TGI,[49],4.21 µM
same,GI50,[50],2.19 µM
same,TGI,[50],9.86 µM
same,GI50,[51],2 µM
same,TGI,[51],4.91 µM
same,GI50,[52],7.34 µM
same,TGI,[52],21.6 µM
same,GI50,[53],2.53 µM
same,TGI,[53],8.28 µM
same,GI50,[54],2.73 µM
same,TGI,[54],10.8 µM
same,GI50,[55],1.44 µM
same,TGI,[55],3.07 µM

# Source: PubChem BioAssay (NCI)
